# Data reported in publication PMC9503459, “Antifungal Activity, Structural Stability, and Immunomodulatory Effects on Human Immune Cells of Defensin from the Lentil Lens culinaris” (Membranes, 2022).
# “And” between values parts separate entries of the source, which are not always exact repeats. Equal entries are not always repeated. No end group written: not given here.
# Columns and labels:
# [1] = test system: proteolytic enzymes of Candida albicans; assay: Sensitivity to proteolytic enzymes of Candida albicans (cell lysate, SDS-PAGE); type: in vitro ADME; conditions: C. albicans lysate 10^9 cells/mL, up to 72 h, SDS-PAGE
# Protocol: For study of Lc-def sensitivity to the clinical isolate of C. albicans, lysates of yeast cells in different concentration and pH were used basically as previously described for rhesus macaque θ-defensin 1 [22]. Cells were inoculated onto modified YPD medium and grown at 37 ℃ for 48 h before reaching the stationary phase of growth. Cells were harvested by centrifugation, washed two times in sterile phosphate buffered saline (PBS), pH 7.2, or sterile 40 mM sodium acetate, pH 4.0, and resuspended in the corresponding buffer to final concentrations of 1 × 10^9 cells/mL or 1 × 10^3 cells/mL. Two freeze-thaw cycles in liquid nitrogen were used for cell disruption, and supernatants were collected following centrifugation. Supernatants (12.5 μL) were mixed with water solutions (37.5 μL) of Lc-def, α-casein, Psd1, or LL-37 in concentration of 0.67 mg/mL and incubated at 37 ℃ for 72 or 24 h in the case of high or low cell concentration, respectively. To study the possible influence of Lc-def and Psd1 on the degradation process, supernatants (12.5 μL) were mixed with both α-casein or LL-37 in concentration of 1 mg/mL (25 μL) and Lc-def or Psd1 in concentration of 2 mg/mL (12.5 μL). As negative controls, α-casein and peptides were mixed with buffers as well as supernatants were mixed with water without the proteins. The samples were mixed with sample buffer without β-mercaptoethanol (BME), heated at 100 ℃ for 2 min, and analyzed by sodium dodecyl sulfate polyacrylamide gel electrophoresis (SDS-PAGE). Some independent experiments were performed in each case.
# [2] = test system: primary CD14+ blood monocytes; assay: Cytokine response by multiplex xMAP, monocytes; type: cell-based, human; conditions: 2 µM, 24 h
# Protocol: Colorectal adenocarcinoma Caco-2 cell line (ATCC HTB-37) was cultured in complete DMEM/F12 (1:1) medium containing 10% fetal bovine serum (FBS, Gibco) and 1X antibiotic-antimycotic solution (1XAAS, Invitrogen, Waltham, MA, USA). The acute monocytic leukemia THP-1 line (ATCC TIB-202) was cultured in complete RPMI-1640 medium, containing 10% FBS, 1XAAS, and […]. THP-1 cells were differentiated into pro-inflammatory macrophages (Mφ1) with phorbol 12-myristate 13-acetate (Sigma-Aldrich) for 24 h and subsequently polarized with lipopolysaccharide from E. coli (Sigma-Aldrich) and rhIFN-γ (Sigma-Aldrich) for another 48 h according to previously reported protocol. All cells were cultured in a humidified CO2 incubator (5% CO2, 37 °C). Primary peripheral blood mononuclear cells (PBMCs) collected from a healthy donor were purchased from American Type Culture Collection (ATCC PCS-800-011). CD4^+ T-helper and CD8^+ T cytotoxic cells were isolated from PBMCs by magnetic separation with mouse anti-human CD4-PE (clone 13B8.2, Beckman Coulter Diagnostics, Pasadena, CA, USA) and CD8-PE (clone REA734, Miltenyi Biotec, Bergisch Gladbach, Germany), Anti-PE MicroBeads (Miltenyi Biotec), and LS Separation Columns (Miltenyi Biotec). Isolated CD4^+ and CD8^+ cells were expanded separately with Dynabeads™ Human T-Expander CD3/CD28 (Gibco, Waltham, MA, USA) in RPMI-1640 supplemented with 10% FBS, 1XAAS and 100 U/mL rh-IL-2 (Gibco). Regulatory CD4^+ FoxP3^+ T cells (Tregs) were isolated from PBMCs by magnetic separation with CD4^+CD25^+ Regulatory T Cell Isolation Kit, human (Miltenyi Biotec). Primary CD14^+ blood monocytes were isolated from PBMCs by adherence according to standard technique. Monocyte-derived mature dendritic cells (moDCs) were obtained from CD14^+ blood monocytes according to the previously reported protocol. Briefly, blood monocytes were incubated in complete RPMI-1640 medium, containing 10% FBS, 1XAAS, 800 U/mL rhGM-CSF (Sci-Store, Russia, Moscow) and 500 U/mL rhIL-4 (Sci-Store) for 3 days. Fresh complete RPMI-1640 medium with rhGM-CSF and rhIL-4 was added to the culture on day 3. On day 5, fresh complete RPMI-1640 containing 100 U/mL rhTNF-α (Sigma) as well as 800 U/mL rhGM-CSF and 500 U/mL rhIL-4 was added and the culture was incubated for another 4 days until full maturation.
# Caco-2 cells were seeded into the wells of a 48-well plate, coated with 0.1% bovine collagen (Sigma-Aldrich) for 24 h, 3 weeks before the experiment with complete DMEM/F12 (1:1) medium renewal every 2–3 days. Monocytes, moDCs, CD4^+ T-helper and CD8^+ T cytotoxic cells, Mφ1, and Regulatory CD4^+ FoxP3^+ T cells were seeded into the wells of 48-well plates in the complete RPMI-1640 medium supplemented with 10% Human AB serum (HABS, Capricorn Scientific, Ebsdorfergrund, Germany) and 1XAAS 24 h prior to the experiment; medium in Caco-2-containing wells was also replaced with the same medium. After 24 h, half of the medium in each well was replaced by fresh complete RPMI-1640 medium with 10% HABS, supplemented with 4 µM of Lc-def for the sample wells or fresh medium alone for the control wells. Cell cultures were kept in CO2-incubator (5% CO2, 37 °C) for another 24 h. Culture supernatants were collected 24 h later and stored at −70 °C degrees less than one month prior to the analytes assessment. […]
substance,measurement,setting,value
"Lc-def: defensin from lentil Lens culinaris seeds (UniProt:B3F051), recombinant, overexpressed in Escherichia coli (KTCENLSDSFKGPCIPDGNCNKHCKEKEHLLSGRCRDDFRCWCTRNC; disulfide (positions not given here); ends not checked; also: disulfide bonds present, pairing not given here; UniProt B3F051 28-74, looked up)",stability to proteolysis by yeast,"[1]; 40 mM sodium acetate pH 4.0, 37 °C",stable
same,stability to proteolysis by yeast,"[1]; PBS pH 7.2, 37 °C, densitometry, immunoblotting",stable
same,EGF,[2],11.56 pg/mL
same,Eotaxin,[2],<3.23↓ pg/ml
same,FGF-2,[2],44.46 pg/mL
same,FLT-3L,[2],1.04 pg/mL
same,Fractalkine,[2],<23.19↓ pg/ml
same,G-CSF,[2],22.68 pg/mL
same,GM-CSF,[2],3.49 pg/mL
same,GROa,[2],777.01 pg/mL
same,IFNa2,[2],21.43 pg/mL
same,IFNg,[2],<1.99↓ pg/ml
same,IL-1RA,[2],10.83 pg/mL
same,IL-1a,[2],17.69 pg/mL
same,IL-1b,[2],<18.72↓ pg/ml
same,IL-2,[2],2.62 pg/mL
same,IL-3,[2],<0.48↓ pg/ml
same,IL-4,[2],0.58 pg/mL
same,IL-5,[2],<0.24↓ pg/ml
same,IL-6,[2],378 pg/mL and 378.12 pg/mL
same,IL-7,[2],<0.33↓ pg/ml
same,IL-8,[2],5662 pg/mL
same,IL-9,[2],1.6 pg/mL
same,IL-10,[2],8.4 pg/mL
same,IL-12 (p40),[2],19.56 pg/mL
same,IL-12 (p70),[2],2.22 pg/mL
same,IL-13,[2],15.11 pg/mL
same,IL-15,[2],3.53 pg/mL
same,IL-17A,[2],2.6 pg/mL
same,IL-17E/IL-25,[2],<20.59↓ pg/ml
same,IL-17F,[2],<16.96↓ pg/ml
same,IL-18,[2],2.04 pg/mL
same,IL-22,[2],17.03 pg/mL
same,IL-27,[2],60.93 pg/mL
same,IP-10,[2],529.41 pg/mL
same,M-GSF,[2],38.29 pg/mL
same,MCP-1,[2],5545 pg/mL
same,MCP-3,[2],326 pg/mL and 326.33 pg/mL
same,MDC,[2],995.8 pg/mL
same,MIG,[2],1406 pg/mL
same,MIP-1a,[2],14.98 pg/mL
same,MIP-1b,[2],42.32 pg/mL
same,PDGF-AB/BB,[2],943.35 pg/mL
same,RANTES,[2],5.41 pg/mL
same,TGF-a,[2],1.79 pg/mL
same,TNFa,[2],27.51 pg/mL
same,TNFb,[2],1.77 pg/mL
same,VEGFa,[2],21.72 pg/mL
same,sCD40L,[2],65.54 pg/mL
